Structures are written as SMILES.

In patent publication US8415469B2, “Compounds and methods for kinase modulation, and indications therefor” (Plexxikon Inc., priority 2005, dated 2013) one finds IC50 data, which are given here for 41 compounds.

What all share (type): biochemical
One experiment addresses T1, Jnk2 (Homo sapiens, UniProt P45984).
T1 construct: purchased Roche Protein Expression Group (Indianapolis, IN)
The experiment can be described thus: AlphaScreen kinase assay, Jnk2. The conditions noted are these: read-out: IC50, activity toward kinase Jnk2. Summed up:
(§1)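 Inhibition reads as diminished acceptor emission, since unphosphorylated peptide fails to bridge antibody acceptor beads and streptavidin donor beads. Titration: eight points, 1:3 steps, stocks at 20 mM in DMSO.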
Background: Bead proximity is the source of the signal in Alpha formats.

In another experiment the target is T2, MAP2K1 (Homo sapiens, UniProt Q02750).
T2 construct: purchased Invitrogen (assay run by Invitrogen)
As to the kind of experiment: Z'-Lyte FRET kinase assay (Invitrogen), MAP2K1. Particulars: read-out: IC50, activity toward kinase MAP2K1.

For the next experiment, the target named is T3, Itk (Homo sapiens, UniProt Q08881).
T3 sequence (Q08881 1-620): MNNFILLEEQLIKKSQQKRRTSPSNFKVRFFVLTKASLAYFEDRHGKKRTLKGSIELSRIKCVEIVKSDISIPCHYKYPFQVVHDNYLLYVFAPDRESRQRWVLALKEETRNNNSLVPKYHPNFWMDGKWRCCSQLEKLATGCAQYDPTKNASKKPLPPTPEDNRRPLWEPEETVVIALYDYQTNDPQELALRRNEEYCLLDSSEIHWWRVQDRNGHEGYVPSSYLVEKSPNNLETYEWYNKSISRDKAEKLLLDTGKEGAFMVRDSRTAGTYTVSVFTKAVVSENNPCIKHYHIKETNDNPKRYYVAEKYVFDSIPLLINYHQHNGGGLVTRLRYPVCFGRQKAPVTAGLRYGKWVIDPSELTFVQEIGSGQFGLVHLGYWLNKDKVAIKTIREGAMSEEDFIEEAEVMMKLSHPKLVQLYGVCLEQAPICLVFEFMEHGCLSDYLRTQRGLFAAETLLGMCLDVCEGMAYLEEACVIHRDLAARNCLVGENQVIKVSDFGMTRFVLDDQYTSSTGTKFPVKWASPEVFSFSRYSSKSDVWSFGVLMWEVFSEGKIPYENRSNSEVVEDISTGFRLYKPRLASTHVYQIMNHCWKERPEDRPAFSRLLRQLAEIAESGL
As to the kind of experiment: AlphaScreen kinase assay, Itk. Particulars: read-out: IC50, activity toward kinase Itk. Summed up:
as §1

The target in the next experiment is Gsk3β (Homo sapiens, UniProt P49841). As to the kind of experiment: AlphaScreen kinase assay, Gsk3β. Particulars: read-out: IC50, activity toward kinase Gsk3β. A digest of the protocol: as §1
In another experiment the target is MAP4K4 (Homo sapiens, UniProt O95819). The experiment can be described thus: AlphaScreen kinase assay, MAP4K4. The conditions noted are these: read-out: IC50, activity toward kinase MAP4K4.
MAP4K4, sequence (O95819 whole entry): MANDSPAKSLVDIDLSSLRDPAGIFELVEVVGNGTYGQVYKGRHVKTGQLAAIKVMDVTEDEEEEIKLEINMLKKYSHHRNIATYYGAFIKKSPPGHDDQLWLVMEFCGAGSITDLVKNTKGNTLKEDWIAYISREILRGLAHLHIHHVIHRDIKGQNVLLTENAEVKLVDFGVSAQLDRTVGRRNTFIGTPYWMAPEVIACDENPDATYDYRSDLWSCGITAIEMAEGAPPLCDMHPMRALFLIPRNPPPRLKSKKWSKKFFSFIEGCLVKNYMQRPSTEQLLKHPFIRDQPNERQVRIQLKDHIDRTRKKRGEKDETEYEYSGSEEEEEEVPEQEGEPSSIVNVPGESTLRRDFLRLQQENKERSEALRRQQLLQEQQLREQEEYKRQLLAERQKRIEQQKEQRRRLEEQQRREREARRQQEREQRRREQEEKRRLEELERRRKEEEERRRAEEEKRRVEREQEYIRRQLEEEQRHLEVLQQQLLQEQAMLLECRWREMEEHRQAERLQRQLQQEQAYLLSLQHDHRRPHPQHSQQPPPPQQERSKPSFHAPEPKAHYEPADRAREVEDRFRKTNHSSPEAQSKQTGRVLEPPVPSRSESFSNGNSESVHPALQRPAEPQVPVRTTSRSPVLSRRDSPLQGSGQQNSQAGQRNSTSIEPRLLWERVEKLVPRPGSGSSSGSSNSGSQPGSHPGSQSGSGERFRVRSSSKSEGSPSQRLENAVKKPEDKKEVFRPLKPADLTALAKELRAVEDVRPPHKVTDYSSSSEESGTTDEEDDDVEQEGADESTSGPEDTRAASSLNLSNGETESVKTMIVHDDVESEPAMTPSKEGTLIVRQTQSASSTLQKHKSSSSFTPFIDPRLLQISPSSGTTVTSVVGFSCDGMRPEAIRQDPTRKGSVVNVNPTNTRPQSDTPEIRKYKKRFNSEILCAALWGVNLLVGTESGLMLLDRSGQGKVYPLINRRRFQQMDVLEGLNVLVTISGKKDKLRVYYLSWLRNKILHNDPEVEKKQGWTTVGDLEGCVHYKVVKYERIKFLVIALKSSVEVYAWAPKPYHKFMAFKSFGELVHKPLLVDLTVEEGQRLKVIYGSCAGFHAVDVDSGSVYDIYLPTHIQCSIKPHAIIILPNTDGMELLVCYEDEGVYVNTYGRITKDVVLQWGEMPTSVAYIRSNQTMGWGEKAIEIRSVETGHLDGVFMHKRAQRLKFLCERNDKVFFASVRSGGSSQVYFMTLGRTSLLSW

Gsk3β, sequence (P49841 whole entry): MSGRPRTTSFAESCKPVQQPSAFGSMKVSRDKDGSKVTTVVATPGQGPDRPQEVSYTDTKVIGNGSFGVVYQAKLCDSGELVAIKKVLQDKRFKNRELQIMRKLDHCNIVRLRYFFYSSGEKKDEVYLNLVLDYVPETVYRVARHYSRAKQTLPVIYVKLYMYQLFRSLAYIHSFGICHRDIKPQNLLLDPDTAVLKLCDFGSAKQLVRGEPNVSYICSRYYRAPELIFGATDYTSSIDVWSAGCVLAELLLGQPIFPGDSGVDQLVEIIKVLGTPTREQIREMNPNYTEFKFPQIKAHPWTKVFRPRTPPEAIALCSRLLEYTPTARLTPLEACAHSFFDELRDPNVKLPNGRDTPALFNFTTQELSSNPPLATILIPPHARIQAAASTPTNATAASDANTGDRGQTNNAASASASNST
T2 sequence (Q02750 whole entry): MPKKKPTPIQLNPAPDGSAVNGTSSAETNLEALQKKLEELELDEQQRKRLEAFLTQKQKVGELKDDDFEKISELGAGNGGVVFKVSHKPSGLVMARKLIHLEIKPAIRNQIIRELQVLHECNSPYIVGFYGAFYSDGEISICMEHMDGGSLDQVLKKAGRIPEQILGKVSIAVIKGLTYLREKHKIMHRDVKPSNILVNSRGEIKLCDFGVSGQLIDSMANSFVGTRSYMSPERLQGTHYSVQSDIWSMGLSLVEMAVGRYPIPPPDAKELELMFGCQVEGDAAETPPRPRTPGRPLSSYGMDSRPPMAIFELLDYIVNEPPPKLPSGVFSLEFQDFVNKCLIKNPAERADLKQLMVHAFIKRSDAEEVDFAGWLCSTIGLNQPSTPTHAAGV
T1 sequence (P45984 whole entry): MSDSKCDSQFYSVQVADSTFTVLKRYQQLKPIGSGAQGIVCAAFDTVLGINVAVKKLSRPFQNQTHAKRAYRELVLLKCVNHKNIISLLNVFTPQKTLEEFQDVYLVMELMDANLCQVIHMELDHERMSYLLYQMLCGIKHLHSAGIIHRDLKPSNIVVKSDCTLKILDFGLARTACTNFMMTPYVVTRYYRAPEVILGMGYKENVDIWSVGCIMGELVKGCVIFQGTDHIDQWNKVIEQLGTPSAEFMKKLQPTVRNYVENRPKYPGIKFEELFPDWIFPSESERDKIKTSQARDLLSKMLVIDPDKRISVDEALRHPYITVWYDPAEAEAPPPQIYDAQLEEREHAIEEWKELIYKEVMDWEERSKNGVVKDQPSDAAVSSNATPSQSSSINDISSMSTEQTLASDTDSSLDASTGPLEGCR

As to `CC(=O)Nc1cccc(-c2cnc3[nH]cc(C(=O)c4cc(O)ccc4F)c3c2)c1` [Compound P-0001], the IC50 on Jnk2 and at MAP2K1 was no more than 10 µM each time.

As to `Nc1cccc(-c2cnc3[nH]cc(C(=O)c4cccc(O)c4)c3c2)c1` [Compound P-0003], the IC50 at MAP2K1 and at Itk was no more than 10 µM each time.

Turning to `Nc1cccc(-c2cnc3[nH]cc(C(=O)c4cccc(O)c4F)c3c2)c1` [Compound P-0004, [5-(3-amino-phenyl)-1H-pyrrolo[2,3-b]pyridin-3-yl]-(2-fluoro-3-hydroxy-phenyl)methanone], the IC50 at Itk is no more than 10 µM.

`O=C(c1cc(O)ccc1F)c1c[nH]c2ncccc12` [Compound P-0005]: the half-maximal inhibitory concentration (IC50) on Jnk2 and at MAP2K1 was no more than 10 µM in each case.

Regarding `CCCS(=O)(=O)Nc1ccc(F)c(C(=O)c2c[nH]c3ncccc23)c1F` [Compound P-0007, Propane-1-sulfonic acid [2,4-difluoro-3-(1H-pyrrolo[2,3-b]pyridine-3-carbonyl)-phenyl]-amide], the IC50 at Gsk3β and at MAP4K4 was no more than 10 µM throughout.

On to `Oc1ccc(F)c(C(O)c2c[nH]c3ncc(-c4cccnc4)cc23)c1F` (stereo not drawn) [Compound P-0009, 2,4-difluoro-3-[hydroxy-(5-pyridin-3-yl-1H-pyrrolo[2,3-b]pyridin-3-yl)-methyl]-phenol], for which the IC50 on Jnk2 and at Itk was no more than 10 µM each time.

For `O=C(c1cccc(O)c1)c1c[nH]c2ncccc12` [Compound P-0011], at MAP2K1, the IC50 was no more than 10 µM.

With `O=C(c1cccc(O)c1)c1c[nH]c2nccc(Cl)c12` [Compound P-0012], the IC50 at MAP2K1 is no more than 10 µM.

Turning to `NC(=O)c1ccc(-c2ccnc3[nH]cc(C(=O)c4cc(F)ccc4F)c23)cc1` [Compound P-0013], the IC50 on Jnk2 and at Itk was no more than 10 µM in each case.

For the compound `NC(=O)c1ccc(-c2ccnc3[nH]cc(C(=O)c4ccccc4F)c23)cc1` [Compound P-0014], the half-inhibitory concentration (IC50) on MAP2K1 was no more than 10 µM.

As to `COc1ccc(C(=O)c2c[nH]c3ncc(-c4cccc(/C=C/C(=O)O)c4)cc23)c(Cl)c1` [Compound P-0015], the IC50 at Jnk2, on MAP2K1 and at Gsk3β was no more than 10 µM throughout.

Take `Cc1c(O)cccc1C(=O)c1c[nH]c2ncc(-c3ccccc3)cc12` [Compound P-0016, (3-Hydroxy-2-methyl-phenyl)-(5-phenyl-1H-pyrrolo[2,3b]pyridin-3-yl)-methanone]: the IC50 at Jnk2 and on Itk was no more than 10 µM throughout.

For the compound `Cc1ccccc1C(=O)c1c[nH]c2nccc(-c3ccc(C(N)=O)cc3)c12` [Compound P-0017], the concentration for half-maximal inhibition (IC50) at MAP2K1 and at Gsk3β was no more than 10 µM throughout.

For the compound `O=C(c1cccc(O)c1)c1c[nH]c2ncc(Br)cc12` [Compound P-0019], the IC50 at Itk is no more than 10 µM.

Take `CS(=O)(=O)c1cccc(-c2cnc3[nH]cc(C(O)c4c(F)ccc(F)c4F)c3c2)c1` (stereo not drawn) [Compound P-0020]: at Itk, the concentration for half-maximal inhibition (IC50) is no more than 10 µM.

Consider `Nc1cccc(-c2ccnc3[nH]cc(C(=O)c4ccccc4F)c23)c1` [Compound P-0022], for which, on MAP2K1, the IC50 is no more than 10 µM.

On to `O=C(c1ccc(O)cc1)c1c[nH]c2ncc(-c3cccs3)cc12` [Compound P-0024, (4-Hydroxy-phenyl)-(5-thiophen-2-yl-1H-pyrrolo[2,3-b]pyridin-3-yl)-methanone], for which the concentration for half-maximal inhibition (IC50) at Itk is no more than 10 µM.

With `O=C(c1cccc(O)c1)c1c[nH]c2ncc(Nc3ccccc3)cc12` [Compound P-0025], the IC50 on Jnk2 and on Itk was no more than 10 µM each time.

For the compound `O=C(c1cccc(O)c1F)c1c[nH]c2ncc(-c3cccnc3)cc12` [Compound P-0027, (2-Fluoro-3-hydroxy-phenyl)-(5-pyridin-3-yl-1H-pyrrolo[2,3-b]pyridin-3-yl)-methanone], the concentration for half-maximal inhibition (IC50) on Jnk2 and on Itk was no more than 10 µM in each case.

Turning to `Nc1ccnc2[nH]cc(C(=O)c3ccccc3)c12` [Compound P-0029], at MAP2K1, the IC50 is no more than 10 µM.

Take `NC(=O)c1cccc(-c2cnc3[nH]cc(C(=O)c4cccc(O)c4F)c3c2)c1` [Compound P-0034, 3-[3-(2-Fluoro-3-hydroxy-benzoyl)-1H-pyrrolo[2,3-b]pyridin-5-yl]benzamide]: the IC50 at Jnk2 and on Itk was no more than 10 µM in each case.

Take `CC(=O)Nc1cccc(-c2cnc3[nH]cc(C(=O)c4cccc(O)c4F)c3c2)c1` [Compound P-0035, N-{3-[3-(2-Fluoro-3-hydroxy-benzoyl)-1H-pyrrolo[2,3-b]pyridin-5-yl]-phenyl}-acetamide]: the IC50 at Jnk2 and on Itk was no more than 10 µM in each case.

Take `O=C(c1cccc(O)c1F)c1c[nH]c2ncc(-c3ccccc3)cc12` [Compound P-0036, (2-fluoro-3-hydroxy-phenyl)-(5-phenyl-1H-pyrrolo[2,3-b]pyridin-3-yl)-methanone]: the IC50 on Itk is no more than 10 µM.

In the case of `CS(=O)(=O)Nc1cccc(-c2cnc3[nH]cc(C(=O)c4cccc(O)c4F)c3c2)c1` [Compound P-0038, N-{3-[3-(2-Fluoro-3-hydroxy-benzoyl)-1H-pyrrolo[2,3-b]pyridin-5-yl]-phenyl}-methanesulfonamide], the IC50 at Itk is no more than 10 µM.

In the case of `Cc1ccc(F)cc1C(=O)c1c[nH]c2ncc(-c3cccc(N)c3)cc12` [Compound P-0040], the half-inhibitory concentration (IC50) on Jnk2 is no more than 10 µM.

As for `Cn1cc(C(F)(F)F)c(-c2ccc(S(=O)(=O)NCc3c[nH]c4ncccc34)s2)n1` [Compound P-0041], at MAP2K1, the 50% inhibitory concentration (IC50) is no more than 10 µM.

`Nc1cccc(-c2ccnc3[nH]cc(C(=O)c4cc(F)ccc4F)c23)c1` [Compound P-0046]: the IC50 on MAP2K1 was no more than 10 µM.

For `O=C(c1ccccc1F)c1c[nH]c2nccc(-c3ccsc3)c12` [Compound P-0051], the IC50 on MAP2K1 was no more than 10 µM.

As for `Oc1cccc(Cc2c[nH]c3ncc(-c4cccs4)cc23)c1F` [Compound P-0052, 2-Fluoro-3-(5-thiophen-2-yl-1H-pyrrolo[2,3-b]pyridin-3-ylmethyl)-phenol], the 50% inhibitory concentration (IC50) at Jnk2 is no more than 10 µM.

`Cc1ccc(S(=O)(=O)NCc2c[nH]c3ncccc23)cc1` [Compound P-0058]: at MAP2K1, the 50% inhibitory concentration (IC50) is no more than 10 µM.

Consider `O=C(c1cccc(O)c1F)c1c[nH]c2ncc(Br)cc12` [Compound P-0067, (5-bromo-1H-pyrrolo[2,3-b]pyridin-3-yl)-(2-fluoro-3-hydroxy-phenyl)-methanone], for which the concentration for half-maximal inhibition (IC50) at Itk is no more than 10 µM.

As to `Cc1c(NS(C)(=O)=O)cccc1C(=O)c1c[nH]c2ncc(-c3ccccc3)cc12` [Compound P-0082, N-[2-Methyl-3-(5-phenyl-1H-pyrrolo[2,3-b]pyridine-3-carbonyl)-phenyl]-methanesulfonamide], the IC50 on Jnk2 and at MAP4K4 was no more than 10 µM in each case.

`CCCS(=O)(=O)Nc1ccc(F)c(C(=O)c2c[nH]c3ncc(-c4cccnc4)cc23)c1F` [Compound P-0088, Propane-1-sulfonic acid [2,4-difluoro-3-(5-pyridin-3-yl-1H-pyrrolo[2,3-b]pyridine-3-carbonyl)-phenyl]-amide]: the IC50 at Jnk2 and at MAP4K4 was no more than 10 µM in each case.

Take `COc1ccc(F)c(C(=O)c2c[nH]c3ncc(-c4cccnc4)cc23)c1` [Compound P-0090]: the IC50 at Jnk2 is no more than 10 µM.

As to `Fc1cc(F)cc(-c2ccnc3[nH]cc(Sc4ccccn4)c23)c1` [Compound P-0106], the half-maximal inhibitory concentration (IC50) at Gsk3β is no more than 10 µM.

Take `Cc1ccccc1C(=O)c1c[nH]c2nccc(-c3cccc(NS(C)(=O)=O)c3)c12` [Compound P-0109]: the concentration for half-maximal inhibition (IC50) at Gsk3β is no more than 10 µM.

Regarding `CCCS(=O)(=O)Nc1ccc(F)c(C(=O)c2c[nH]c3ncc(OC)cc23)c1F` [Compound P-0806, Propane-1-sulfonic acid [2,4-difluoro-3-(5-methoxy-1H-pyrrolo[2,3-b]pyridine-3-carbonyl)-phenyl]-amide], the IC50 on MAP2K1 and on MAP4K4 was no more than 10 µM throughout.

For the compound `CCCC(=O)Nc1ccc(F)c(Cc2c[nH]c3ncc(-c4cccnc4)cc23)c1F` [Compound P-1280], the IC50 at MAP4K4 was no more than 10 µM.

Consider `CCCCNC(=O)Nc1ccc(F)c(C(=O)c2c[nH]c3ncc(-c4cccnc4)cc23)c1F` [Compound P-1318, 1-Butyl-3-[2,4-difluoro-3-(5-pyridin-3-yl-1H-pyrrolo[2,3-b]pyridine-3-carbonyl)-phenyl]-urea], for which the IC50 on Jnk2 and at MAP4K4 was no more than 10 µM throughout.

`OCCOc1ccc(F)c(Cc2c[nH]c3ncc(-c4cccnc4)cc23)c1F` [Compound P-1394, 2-[2,4-Difluoro-3-(5-pyridin-3-yl-1H-pyrrolo[2,3-b]pyridin-3-ylmethyl)-phenoxy]-ethanol]: on MAP4K4, the concentration for half-maximal inhibition (IC50) was no more than 10 µM.

Turning to `COc1cc(OC)cc(C(=O)c2c[nH]c3ncc(-c4cccc(NS(C)(=O)=O)c4)cc23)c1` [Compound P-1426, N-{3-[3-(3,5-Dimethoxy-benzoyl)-1H-pyrrolo[2,3-b]pyridin-5-yl]-phenyl}-methanesulfonamide], the concentration for half-maximal inhibition (IC50) on Gsk3β and on MAP4K4 was no more than 10 µM each time.

What is called IC50 is the midpoint of a concentration-inhibition curve.
